± gives the expanded uncertainty stated by the source.
Experiment: molar heat capacity at constant pressure; xn = mol fraction of the nth substance listed
Settings: 100 kPa, Liquid, Small sample (50 mg) DSC

CC(O)CCO (stereo not given) [1,3-butanediol] + CO
molar heat capacity at constant pressure [J/K/mol]
Settings	293.15 K	298.15 K	303.15 K	308.15 K	313.15 K	318.15 K	323.15 K
x1 = 0.097	92.98 ± 4	94.08 ± 4	95.24 ± 4	96.45 ± 4.1	97.77 ± 4.1	99.12 ± 4.2	100.56 ± 4.3
x1 = 0.1924	105.32 ± 4.5	106.66 ± 4.5	108.04 ± 4.6	109.47 ± 4.6	110.98 ± 4.7	112.54 ± 4.8	114.18 ± 4.8
x1 = 0.2893	118.06 ± 5	119.57 ± 5.1	121.13 ± 5.1	122.79 ± 5.2	124.45 ± 5.3	126.21 ± 5.4	128.02 ± 5.4
x1 = 0.3902	131.62 ± 5.6	133.42 ± 5.6	135.23 ± 5.7	137.09 ± 5.8	139 ± 5.9	140.97 ± 6	142.94 ± 6.1
x1 = 0.4943	145.68 ± 6.2	147.68 ± 6.3	149.69 ± 6.4	151.69 ± 6.4	153.82 ± 6.5	155.95 ± 6.6	158.19 ± 6.7
x1 = 0.6067	161 ± 6.9	163.22 ± 6.9	165.51 ± 7	167.79 ± 7.1	170.15 ± 7.2	172.5 ± 7.3	174.92 ± 7.4
x1 = 0.7843	185.37 ± 7.8	187.93 ± 8	190.57 ± 8.1	193.28 ± 8.2	195.92 ± 8.3	198.72 ± 8.5	201.51 ± 8.5
x1 = 0.9064	202.23 ± 8.6	205.11 ± 8.7	207.99 ± 8.8	210.95 ± 9	213.91 ± 9.1	216.88 ± 9.2	219.93 ± 9.3
x1 = 0.9165	203.63 ± 8.6	206.44 ± 8.8	209.34 ± 8.9	212.24 ± 9	215.22 ± 9.1	218.21 ± 9.3	221.28 ± 9.4
x1 = 0.9242	204.61 ± 8.7	207.52 ± 8.8	210.44 ± 8.9	213.44 ± 9.1	216.44 ± 9.2	219.44 ± 9.3	222.53 ± 9.4
x1 = 0.9624	210.08 ± 8.9	213.07 ± 9.1	216.06 ± 9.1	219.14 ± 9.3	222.22 ± 9.4	225.38 ± 9.6	228.55 ± 9.7
x1 = 1	215.84 ± 9.2	218.9 ± 9.3	222.06 ± 9.5	225.21 ± 9.6	228.37 ± 9.7	231.61 ± 9.8	234.86 ± 10

CC(O)C(C)O (stereo not given) [2,3-butanediol] + CO
molar heat capacity at constant pressure [J/K/mol]
Settings	293.15 K	298.15 K	303.15 K	308.15 K	313.15 K	318.15 K	323.15 K
x1 = 0.0456	86.73 ± 3.7	87.8 ± 3.7	88.95 ± 3.8	90.13 ± 3.8	91.37 ± 3.9	92.66 ± 3.9	94.01 ± 4
x1 = 0.0847	92.44 ± 3.9	93.66 ± 4	94.92 ± 4	96.21 ± 4.1	97.54 ± 4.1	98.95 ± 4.2	100.35 ± 4.3
x1 = 0.1972	108.82 ± 4.6	110.3 ± 4.7	111.78 ± 4.7	113.35 ± 4.8	114.96 ± 4.9	116.61 ± 5	118.31 ± 5
x1 = 0.2792	121.32 ± 5.2	122.96 ± 5.2	124.65 ± 5.3	126.34 ± 5.4	128.08 ± 5.5	129.81 ± 5.5	131.6 ± 5.6
x1 = 0.3824	136.66 ± 5.8	138.56 ± 5.9	140.46 ± 6	142.41 ± 6	144.36 ± 6.1	146.37 ± 6.2	148.43 ± 6.3
x1 = 0.4673	150.38 ± 6.4	152.39 ± 6.5	154.41 ± 6.6	156.48 ± 6.6	158.55 ± 6.7	160.68 ± 6.8	162.81 ± 6.9
x1 = 0.5862	168.13 ± 7.1	170.37 ± 7.2	172.69 ± 7.3	174.93 ± 7.4	177.25 ± 7.5	179.63 ± 7.6	182.01 ± 7.7
x1 = 0.7041	186.64 ± 7.9	189.05 ± 8	191.46 ± 8.1	193.94 ± 8.2	196.41 ± 8.3	198.89 ± 8.5	201.45 ± 8.5
x1 = 0.8169	204.52 ± 11	207.14 ± 11	209.84 ± 11	212.55 ± 11	215.17 ± 11	217.87 ± 12	220.58 ± 12
x1 = 0.8832	214.76 ± 9.1	217.34 ± 9.3	220.01 ± 9.3	222.68 ± 9.4	225.26 ± 9.6	227.93 ± 9.7	230.59 ± 9.8
x1 = 0.9271	221.76 ± 9.4	224.59 ± 9.5	227.34 ± 9.6	230.18 ± 9.8	233.01 ± 9.9	235.93 ± 10	238.77 ± 10
x1 = 0.9501	225.38 ± 9.6	228 ± 9.7	230.7 ± 9.8	233.32 ± 9.9	236.11 ± 10	238.82 ± 10	241.61 ± 10
x1 = 1	233.95 ± 9.9	236.66 ± 10	239.36 ± 10	242.07 ± 10	244.77 ± 10	247.47 ± 11	250.18 ± 11

Reference: the NIST ThermoML archive (doi:10.1016/j.jct.2014.07.023)
